Assay results as given in BindingDB's records for doi:10.1016/j.ejmech.2012.11.007 (Chungnam National University, 2013).

Assay: Inhibition of IL-5 in mouse pro-B Y16 cells after 48 hrs by WST1 assay
Compound `CC(C)COc1cccc2occ(/C=C/C(=O)c3ccc(O)cc3)c(=O)c12` has an IC50 of 19.1 µM. `Cc1ccc(C(O)/C=C/c2coc3cccc(OCC4CCCCC4)c3c2=O)cc1` (centres undefined) showed an IC50 of 15 µM. For `O=c1c(/C=C/C(O)c2ccc(O)cc2)coc2cccc(OCC3CCCCC3)c12` (centres undefined), the IC50 was 12.5 µM. In the case of `O=c1c(/C=C/C(O)c2ccc([N+](=O)[O-])cc2)coc2cccc(OCC3CCCCC3)c12` (centres undefined), the IC50 is reported as 7 µM. Work on `O=C(/C=C/c1coc2cccc(OCC3CCCCC3)c2c1=O)c1ccc([N+](=O)[O-])cc1` yielded an IC50 greater than 30 µM. Work on `COc1cccc2occ(/C=C/C(O)c3ccc(O)cc3)c(=O)c12` (centres undefined) yielded an IC50 greater than 30 µM. With `COc1ccc(C(=O)/C=C/c2coc3cccc(OCC4CCCCC4)c3c2=O)cc1` the IC50 was greater than 30 µM. `O=C(/C=C/c1coc2cccc(OCC3CCCCC3)c2c1=O)c1ccc(O)cc1` showed an IC50 of 16.2 µM. Compound `O=C(/C=C/c1coc2cccc(OCC3CCCCC3)c2c1=O)c1ccc(C(F)(F)F)cc1` has an IC50 greater than 30 µM. `O=c1c(/C=C/C(O)c2ccccc2)coc2cccc(OCC3CCCCC3)c12` (centres undefined) showed an IC50 of 15 µM. `O=C(/C=C/c1coc2cccc(OCC3CCCCC3)c2c1=O)c1ccc(F)cc1` gave an IC50 greater than 30 µM. With `O=c1c(/C=C/C(O)c2ccc(C(F)(F)F)cc2)coc2cccc(OCC3CCCCC3)c12` (centres undefined) the IC50 was 13.2 µM. Compound `O=c1c(/C=C/C(O)c2ccc(F)cc2)coc2cccc(OCC3CCCCC3)c12` (centres undefined) has an IC50 of 6.4 µM. `CC(C)(C)c1ccc(C(=O)/C=C/c2coc3cccc(OCC4CCCCC4)c3c2=O)cc1` showed an IC50 of 18.1 µM. Compound `O=C(/C=C/c1coc2cccc(OCC3CCCCC3)c2c1=O)c1ccccc1` has an IC50 greater than 30 µM. With `COc1cccc2occ(/C=C/C(=O)c3ccc(O)cc3)c(=O)c12` the IC50 was greater than 30 µM. `N#Cc1ccc(C(=O)/C=C/c2coc3cccc(OCC4CCCCC4)c3c2=O)cc1` gave an IC50 greater than 30 µM. With `CC(C)(C)c1ccc(C(O)/C=C/c2coc3cccc(OCC4CCCCC4)c3c2=O)cc1` (centres undefined) the IC50 was greater than 30 µM. Compound `Cc1ccc(C(=O)/C=C/c2coc3cccc(OCC4CCCCC4)c3c2=O)cc1` has an IC50 of 25.1 µM. For `O=c1c(/C=C/C(O)c2ccc(Cl)cc2)coc2cccc(OCC3CCCCC3)c12` (centres undefined), the IC50 was 7 µM. `O=C(/C=C/c1coc2cccc(OCC3CCCCC3)c2c1=O)c1ccc(Cl)cc1` showed an IC50 greater than 30 µM. `CC(C)COc1cccc2occ(/C=C/C(O)c3ccc(O)cc3)c(=O)c12` (centres undefined) showed an IC50 greater than 30 µM. `COc1ccc(C(O)/C=C/c2coc3cccc(OCC4CCCCC4)c3c2=O)cc1` (centres undefined) gave an IC50 of 16 µM. For `N#Cc1ccc(C(O)/C=C/c2coc3cccc(OCC4CCCCC4)c3c2=O)cc1` (centres undefined), the IC50 was 6.7 µM.
